Target: rat PGT (Rattus norvegicus (Rat), UniProt Q00910)
Experiment: [3H]PGE2 uptake inhibition in MDCK cells stably transfected with rat PGT (percent inhibition and IC50)
Format: cell-based
Conditions: for Inh (% of Ctl) 1 μM: 1 μM compound; for Inh (% of Ctl) 1 μM / Inh (% of Ctl) 10 μM / Inh (% of Ctl) 0.1 μM / Inh (% of Ctl) 0.5 μM / Inh (% of Ctl) 2.5 μM / Inh (% of Ctl) 5 μM: inhibition of [3H]PGE2 uptake; for Inh (% of Ctl) 10 μM: 10 μM compound; for Inh (% of Ctl) 0.1 μM: 0.1 μM compound; for Inh (% of Ctl) 0.5 μM: 0.5 μM compound; for Inh (% of Ctl) 2.5 μM: 2.5 μM compound; for Inh (% of Ctl) 5 μM: 5 μM compound; for IC50: [3H]PGE2 uptake, MDCK cells stably transfected with rat PGT
Description: MDCK cells stably transfected with rat PGT (Endo et al., 2002) were seeded at 15-20% confluence on 24-well plates. The day on which the cells were seeded was considered day 1. PGE2 uptake experiments were conducted on day 4. All of the PGE2 uptake experiments were conducted at room temperature. On day 4, cells were washed twice with Waymouth buffer (135 mM NaCl, 13 mM H-Hepes, 13 mM Na-Hepes, 2.5 mM CaCl2, 1.2 mM MgCl2, 0.8 mM MgSO4, 5 mM KCl, and 28 mM D-glucose). Then 200 μL of Waymouth buffer containing [^3H]PGE2 (purchased from Perkin Elmer) was added to each well. At the designed time, the uptake of [^3H]PGE2 was stopped by aspiration of uptake buffer; this was followed by immediate washing twice with 500 μL of chilled Waymouth buffer. Cells were then lysed with 100 μL lysis buffer containing 0.25% SDS and 0.05 N NaOH. 1.5 mL of scintillation solution was added to each well, and intracellular [^3H]PGE2 was counted by MicroBeta Counter.
For preliminary testing of the compounds, 20 μL of Waymouth buffer containing the compound was added to each well; this was immediately followed by the addition of 180 μL of Waymouth buffer containing [^3H]PGE2. In each well, the total volume of uptake medium was 200 μL. Organic compounds were first dissolved in EtOH and then diluted in Waymouth buffer. The percent inhibition of [^3H]PGE2 uptake by compounds was calculated as [(uptakevehicle−uptakeinhibitor)÷(uptakevehicle)]×100.
IC50 was calculated by fitting an equation of y=m1−m1*(m0/(m2+m0)).

Row | SMILES | Inh (% of Ctl) 1 μM | Inh (% of Ctl) 10 μM | Inh (% of Ctl) 0.1 μM | Inh (% of Ctl) 0.5 μM | Inh (% of Ctl) 2.5 μM | Inh (% of Ctl) 5 μM | IC50
1 | COC(=O)COCCOCCNC(=O)c1ccc(Nc2nc(NCCOCCOCCNC(=O)c3ccccc3)nc(Nc3ccc(O)cc3)n2)cc1 [compound 47] | 22.6 % of Ctl | 76.5 % of Ctl |  |  |  |  | 
2 | O=C(O)Cc1ccc(Nc2nc(NCCOCCOCCNC(=O)c3ccccc3)nc(Nc3ccc(C(=O)NCc4ccccc4)cc3)n2)cc1 [compound 125] |  |  | 3.2 % of Ctl | 24.3 % of Ctl |  |  | 
3 | O=C(NCCOCCOCCNc1nc(Nc2ccc(C(=O)NCc3ccc(F)cc3)cc2)nc(Nc2ccc3[nH]cnc3c2)n1)c1ccccc1 [compound 142] | 39.2 % of Ctl |  | 8.4 % of Ctl | 20.1 % of Ctl |  |  | 
4 | O=C(NCCOCCOCCNc1nc(Nc2ccc(O)cc2)nc(Nc2ccc(C(=O)NCc3cccc4ccccc34)cc2)n1)c1ccccc1 [compound 89] |  |  |  | 33.8 % of Ctl | 76.5 % of Ctl | 86.0 % of Ctl | 
5 | O=C(NCCOCCOCCNc1nc(Nc2ccc(O)cc2)nc(Nc2ccc(C(=O)NCc3ccc(-c4ccccc4)cc3)cc2)n1)c1ccccc1 [compound 93] |  |  |  | 24.6 % of Ctl | 43.3 % of Ctl | 51.1 % of Ctl | 
6 | O=C(NCCOCCOCCNc1nc(Nc2ccc(O)cc2)nc(Nc2ccc(C(=O)NCc3ccc(Cl)cc3Cl)cc2)n1)c1ccccc1 [compound 100] |  |  | 41.1 % of Ctl | 56.4 % of Ctl | 57.6 % of Ctl | 86.0 % of Ctl | 
7 | CCCCCCCC(=O)c1ccc(Nc2nc(NCCOCCOCCNC(=O)c3ccccc3)nc(Nc3ccc(O)cc3)n2)cc1 [compound 76] |  |  |  | 13.5 % of Ctl | 35.9 % of Ctl | 70.5 % of Ctl | 
8 | COCCOCCOCCNc1nc(NCCOCCOCCNC(=O)c2ccccc2)nc(Nc2ccc(O)cc2)n1 [compound 11] |  |  |  | 11.4 % of Ctl |  | 29.9 % of Ctl | 
9 | COC(=O)CCCCCCNC(=O)c1ccc(Nc2nc(NCCOCCOCCNC(=O)c3ccccc3)nc(Nc3ccc(O)cc3)n2)cc1 [compound 43] | 34.8 % of Ctl | 84.1 % of Ctl |  |  |  |  | 1300 nM
10 | O=C(O)CCCCCCNC(=O)c1ccc(Nc2nc(NCCOCCOCCNC(=O)c3ccccc3)nc(Nc3ccc(O)cc3)n2)cc1 [compound 48] | 14.2 % of Ctl | 62.8 % of Ctl |  |  |  |  | 
11 | O=C(CCCCCCNc1nc(Nc2ccccc2)nc(Nc2ccc(O)cc2)n1)Nc1ccccc1 [compound 96] | 8.6 % of Ctl | 51.9 % of Ctl |  |  |  | 23.9 % of Ctl | 
12 | O=C(NCCOCCOCCNc1nc(Nc2ccc(C(=O)NCc3ccc(F)cc3)cc2)nc(Nc2ccc(O)c(C(=O)O)c2)n1)c1ccccc1 [compound 146] | 70.4 % of Ctl |  | 28.5 % of Ctl | 59.8 % of Ctl |  |  | 44.8 nM
13 | COC(=O)COCCOCCNc1nc(Nc2ccccc2)nc(Nc2ccc(O)cc2)n1 [compound 49] | 1.7 % of Ctl | 12.5 % of Ctl |  |  |  |  | 
14 | O=C(NCCOCCOCCNc1nc(Nc2ccc(O)cc2)nc(Nc2ccc(C(=O)NCc3cccnc3)cc2)n1)c1ccccc1 [compound 67] |  |  |  | 13.4 % of Ctl |  | 76.1 % of Ctl | 
15 | O=C(NCCOCCOCCNc1nc(Nc2ccc(O)cc2)nc(Nc2ccc(C(=O)NCc3cccc(F)c3)cc2)n1)c1ccccc1 [compound 105] |  |  | 67.9 % of Ctl | 64.6 % of Ctl | 81 % of Ctl | 92.45 % of Ctl | 47.5 nM
16 | O=C(NCc1ccc(F)cc1)c1ccc(Nc2nc(Nc3ccc(O)cc3)nc(Nc3ccc(C(=O)NCc4ccc(F)cc4)cc3)n2)cc1 [compound 148] | 20.7 % of Ctl |  | 8.4 % of Ctl | 12.9 % of Ctl |  |  | 
17 | O=C(O)c1ccc(CNC(=O)c2ccc(Nc3nc(NCCOCCOCCNC(=O)c4ccccc4)nc(Nc4ccc(O)cc4)n3)cc2)cc1 [compound 112] |  |  |  | 17.5 % of Ctl | 32.2 % of Ctl | 49.4 % of Ctl | 
18 | NS(=O)(=O)c1ccc(Nc2nc(NCCOCCOCCNC(=O)c3ccccc3)nc(Nc3ccc(O)cc3)n2)cc1 [compound 46] | 4.1 % of Ctl | 32.4 % of Ctl |  |  |  |  | 

Row | SMILES | Inh (% of Ctl) 1 μM | Inh (% of Ctl) 10 μM | Inh (% of Ctl) 0.1 μM | Inh (% of Ctl) 0.5 μM | Inh (% of Ctl) 2.5 μM | Inh (% of Ctl) 5 μM | IC50
19 | O=C(NCCOCCOCCNc1nc(Nc2ccccc2)nc(Nc2ccc(O)cc2)n1)c1cccc(F)c1 [compound 34] | 25.8 % of Ctl | 81 % of Ctl |  |  |  |  | 
20 | O=C(O)Cc1ccc(Nc2nc(NCCOCCOCCNC(=O)c3ccccc3)nc(Nc3ccccc3)n2)cc1 [compound 57] | 27.4 % of Ctl | 56.6 % of Ctl |  |  |  | 29.5 % of Ctl | 5570 nM
21 | O=C(NCCOCCNc1nc(Nc2ccc(O)cc2)nc(Nc2ccc(C(=O)NCc3ccccc3)cc2)n1)c1ccccc1 [compound 118] |  |  | 74.2 % of Ctl | 90.7 % of Ctl |  |  | 20.9 nM
22 | O=C(NCCOCCOCCNc1nc(Nc2ccc(O)cc2)nc(Nc2ccc(C(=O)NCc3ccccn3)cc2)n1)c1ccccc1 [compound 70] |  |  |  | 21.2 % of Ctl |  | 84.0 % of Ctl | 1050 nM
23 | O=C(NCCOCCOCCNc1nc(Nc2ccc(O)cc2)nc(Nc2ccc(C(=O)NCc3cc(Cl)cc(Cl)c3)cc2)n1)c1ccccc1 [compound 108] |  |  | 70.3 % of Ctl | 60.8 % of Ctl | 78.3 % of Ctl | 76.6 % of Ctl | 
24 | O=C(NCCOCCOCCNc1nc(Nc2ccccc2)nc(Nc2ccc(O)cc2)n1)c1cccs1 [compound 39] | 42.9 % of Ctl | 86.2 % of Ctl |  |  |  |  | 
25 | O=C(NCCOCCOCCNc1nc(Nc2ccc(O)cc2)nc(Nc2ccc(C(=O)NCc3ccc4[nH]ccc4c3)cc2)n1)c1ccccc1 [compound 94] |  |  |  | 36.0 % of Ctl | 66.7 % of Ctl | 76.1 % of Ctl | 
26 | COc1ccc(CNC(=O)c2ccc(Nc3nc(NCCOCCOCCNC(=O)c4ccccc4)nc(Nc4ccc(O)cc4)n3)cc2)cc1 [compound 92] |  |  |  | 33.7 % of Ctl | 71.3 % of Ctl | 80.6 % of Ctl | 
27 | O=C(NCCOCCOCCNc1nc(Nc2ccccc2)nc(Nc2ccc(O)cc2)n1)c1cccnc1 [compound 33] | 13.2 % of Ctl | 54.6 % of Ctl |  |  |  |  | 
28 | O=C(NCCOCCOCCNc1nc(Nc2ccc(C(=O)NCc3ccc(F)cc3)cc2)nc(Nc2ccc(O)c(F)c2)n1)c1ccccc1 [compound 143] | 69.5 % of Ctl |  | 33.7 % of Ctl | 57.8 % of Ctl |  |  | 16.5 nM
29 | COC(=O)c1cc(Nc2nc(NCCOCCOCCNC(=O)c3ccccc3)nc(Nc3ccc(C(=O)NCc4ccc(F)cc4)cc3)n2)ccc1O [compound 144] | 10.8 % of Ctl |  | 3.4 % of Ctl | 5.8 % of Ctl |  |  | 
30 | O=C(NCCOCCOCCNc1nc(NCCO)nc(Nc2ccc(OCc3ccccc3)cc2)n1)c1ccccc1 [compound 6] |  |  |  | 3.6 % of Ctl |  | 11.7 % of Ctl | 
31 | O=C(NCCOCCOCCNc1nc(Nc2ccccc2)nc(Nc2ccc(O)cc2)n1)c1ccccc1 [compound 4] | 32.4 % of Ctl | 81.5 % of Ctl |  | 7.0 % of Ctl |  | 67.6 % of Ctl | 4850 nM
32 | O=C(NCCOCCNc1nc(Nc2ccccc2)nc(Nc2ccc(O)cc2)n1)c1ccccc1 [compound 59] | 36.8 % of Ctl | 75.8 % of Ctl |  |  |  |  | 2460 nM
33 | O=C(NCCOCCOCCNc1nc(NCCO)nc(Nc2ccc(O)cc2)n1)c1ccccc1 [compound 10] |  |  |  | 1.4 % of Ctl |  | 15.0 % of Ctl | 
34 | CC(C)(C)NC(=O)c1ccc(Nc2nc(NCCOCCOCCNC(=O)c3ccccc3)nc(Nc3ccc(O)cc3)n2)cc1 [compound 16] |  |  |  | 11.8 % of Ctl |  | 44.8 % of Ctl | 9770 nM
35 | O=C(NCCOCCOCCNc1nc(Nc2ccc(O)cc2)nc(Nc2ccc(C(=O)NCc3cc(F)ccc3F)cc2)n1)c1ccccc1 [compound 127] | 70.2 % of Ctl |  | 17.0 % of Ctl | 52.3 % of Ctl |  |  | 
36 | COCCOCCOCCNc1nc(NCCOCCOCCNC(=O)c2ccccc2)nc(Nc2ccc(OCc3ccccc3)cc2)n1 [compound 7] |  |  |  | 4.8 % of Ctl |  | 22.5 % of Ctl | 
